This assay deals with 883617-216-R-J1-PDC complex spheroid viability. Description: Anticancer human tumor 883617-216-R-J1-PDC patient-derived bladder carcinoma cell line growth inhibition [POLQ]. The settings on record: for viability, T/C: stronger effect = lower value. As for the experimental part:
Multicellular complex tumor spheroid response to Polymerase (POL) inhibitors (novobiocin, ART-558, RP6685) in combination with a variety of drugs and investigational agents in selected tumor cell lines
The POL inhibitors (novobiocin, ART-558, and RP6685) were evaluated both individually and in combination with standard of care and investigational anticancer small molecules within a complex spheroid model of solid tumors. . Complex spheroids include a stromal component modeled by human endothelial cells (HUVEC) and fibroblasts modeled by human mesenchymal stem cells (MSCs). The concentration ranges selected for each drug and investigational agent were based upon clinically achievable concentrations if the clinical Cmax of the agent was known.
Compounds. The drugs and investigational agents: novobiocin (NSC847541), ART-558 (NSC835418), RP-6685 (NSC848927), peposertib (NSC802822), ceralasertib (NSC780249), elimusertib (NSC800525), camonsertib (NSC841442), AZD-1390 (NSC803789), olaparib (NSC753686), talazoparib (NSC767125), rucaparib (NSC756644), sotorasib (NSC818433), MRTX-1133 (NSC836407), SN-38 (NSC673596), topotecan (NSC609699), epotoside (NSC141540), doxorubicin (NSC123127), gemcitabine (NSC613327), 5-fluorouracil (NSC19893), paclitaxel (NSC125973), vemurafenib (NSC761431), MSA-2 (NSC828583), SN-011 (NSC837082), adavosertib (NSC754352), prexasertib (NSC758257), carboplatin (NSC241240) and oxaliplatin (NSC266046), were obtained from the National Cancer Institute (NCI) Developmental Therapeutics Program Chemical Repository (21). The FDA-approved anticancer drug set is available from the Developmental Therapeutics Program at https://dtp.cancer.gov/organization/dscb/obtaining/. […] The stock solutions were prepared in dimethyl sulfoxide (DMSO, Sigma-Aldrich, St. Louis, MO, cat. D2650), except for the platinum compounds which were prepared in saline (Quality Biological, Gaithersburg, MD, cat. 114-055-101), at 800-fold the tested concentration and stored at -70 degrees C prior to their use. All drugs and investigational agents were tested over a range starting from a high concentration at or near the clinical Cmax and decreasing in half-log increments. If the clinical Cmax for an agent had not been determined, the highest concentration tested was 10 microM, except for SN-38, which was tested at a high concentration of 1 microM.
Cell Culture. All cells were maintained in an incubator at 37 degrees C and 5% CO2 with 95% humidity. The PDC lines were cultured according to standard operating procedures established by the NCI PDMR (https://pdmr.cancer.gov). Table 3 of the manuscript, lists the cell lines along with the number of the three cell types plated to form the mct-spheroids and media for tumor cell growth. After thawing, all PDC lines, except 997537-175-T-J1-PDC and 415267-285-R-J2-PDC, were cultured in Matrigel-coated flasks prepared with a working solution of 1X Ham's F-12 nutrient mix, without supplementation (Thermo Fisher Scientific, cat. 11765054), 100 U/mL penicillin-streptomycin (Thermo Fisher Scientific, cat. 15140122), and 2.5% Matrigel (Corning Inc., Corning, NY, cat. 354248) for the first three passages. The two PDC lines 997537-175-T-J1-PDC and 415267-285-R-J2-PDC were cultured on uncoated flasks. The 857933-349-R-J2-PDC line was cultured in 6C/Colon 1B media containing advanced DMEM/F-12 (Thermo Fisher Scientific, cat. 12634028), 10 mM HEPES (Thermo Fisher Scientific, cat. 15630080), 1X GlutaMAX supplement (Thermo Fisher Scientific, cat. 35050061), 0.1 mg/mL primocin (InvivoGen, San Diego, CA, cat. ant-pm-2), 10% defined fetal bovine serum, heat inactivated (HyClone Laboratories Inc., Logan, UT, cat. SH30070.03HI), 50% L-WRN conditioned media (ATCC, cat. CRL-3276), 1.25 mM N-Acetyl-L-cysteine (Sigma-Aldrich, cat. A9165), 10 mM nicotinamide (Sigma-Aldrich, cat. N0636), 1X B-27 supplement (Thermo Fisher Scientific, cat. 17504044), 1X N-2 supplement (Thermo Fisher Scientific, cat. […]

[1] abbreviates: curve of first compound, second compound 0.0316 µM.
[2] abbreviates: curve of first compound, second compound 0.1 µM.
The mark [3] stands for this setting: curve of first compound, second compound 0.316 µM.
Setting [4] is: curve of first compound, second compound 1 µM.
[5] abbreviates: curve of first compound, second compound 3.16 µM.
Setting [6] is: curve of first compound, second compound 10 µM.
[7] abbreviates: second compound 0.0316 µM, first compound 0.0316 µM.
Setting [8] is: second compound 0.0316 µM, first compound 0.1 µM.
Setting [9] is: second compound 0.0316 µM, first compound 0.316 µM.
Setting [10] is: second compound 0.0316 µM, first compound 1 µM.
Setting [11] is: second compound 0.0316 µM, first compound 3.16 µM.
[12] abbreviates: second compound 0.0316 µM, first compound 10 µM.
The mark [13] stands for this setting: second compound 0.1 µM, first compound 0.0316 µM.
Where [14] appears, read: second compound 0.1 µM, first compound 0.1 µM.
Where [15] appears, read: second compound 0.1 µM, first compound 0.316 µM.
The mark [16] stands for this setting: second compound 0.1 µM, first compound 1 µM.
The mark [17] stands for this setting: second compound 0.1 µM, first compound 3.16 µM.
Where [18] appears, read: second compound 0.1 µM, first compound 10 µM.
Where [19] appears, read: second compound 0.316 µM, first compound 0.0316 µM.
The mark [20] stands for this setting: second compound 0.316 µM, first compound 0.1 µM.
[21] abbreviates: second compound 0.316 µM, first compound 0.316 µM.
Setting [22] is: second compound 0.316 µM, first compound 1 µM.
The mark [23] stands for this setting: second compound 0.316 µM, first compound 3.16 µM.
[24] abbreviates: second compound 0.316 µM, first compound 10 µM.
Where [25] appears, read: second compound 1 µM, first compound 0.0316 µM.
[26] abbreviates: second compound 1 µM, first compound 0.1 µM.
Setting [27] is: second compound 1 µM, first compound 0.316 µM.
[28] abbreviates: second compound 1 µM, first compound 1 µM.
Where [29] appears, read: second compound 1 µM, first compound 3.16 µM.
[30] abbreviates: second compound 1 µM, first compound 10 µM.
Setting [31] is: second compound 3.16 µM, first compound 0.0316 µM.
[32] abbreviates: second compound 3.16 µM, first compound 0.1 µM.
[33] abbreviates: second compound 3.16 µM, first compound 0.316 µM.
Where [34] appears, read: second compound 3.16 µM, first compound 1 µM.
Where [35] appears, read: second compound 3.16 µM, first compound 3.16 µM.
The mark [36] stands for this setting: second compound 3.16 µM, first compound 10 µM.
Setting [37] is: second compound 10 µM, first compound 0.0316 µM.
Where [38] appears, read: second compound 10 µM, first compound 0.1 µM.
The mark [39] stands for this setting: second compound 10 µM, first compound 0.316 µM.
The mark [40] stands for this setting: second compound 10 µM, first compound 1 µM.
The mark [41] stands for this setting: second compound 10 µM, first compound 3.16 µM.
Setting [42] is: second compound 10 µM, first compound 10 µM.

pIC50: −log10 of the molar value. Several values for one entry are separate records, joined by “and”; a condition that tells them apart may be missing. Equal values may be shown once.
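Also: spheroids exposed to compounds for seven days before readout.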

Broadly, the pIC50 is −log10 of the IC50, conventionally taken in molar units. The viability, T/C is the ratio of treated to control. Turning to `COc1cc(C2c3cc4c(cc3C(OC3OC5COC(C)OC5C(O)C3O)C3COC(=O)C23)OCO4)cc(OC)c1O` (centres undefined) + Cc1cccc(N(C)C(=O)C2C(O)CCN2c2nc(C)cc(C(F)(F)F)c2C#N)c1, the pIC50 is, setting by setting: under setting [1], under 5.00; under setting [2], 5.20; under setting [3], under 5.00; under setting [4], under 5.00; under setting [5], under 5.00; under setting [6], under 5.00. The viability, T/C under setting [7] is 98.5%; the viability, T/C under setting [8] is 95.8%; the viability, T/C under setting [9] was 75.2%; the viability, T/C under setting [10] is 66%; the viability, T/C under setting [11] is 64%; the viability, T/C under setting [12] was 54.8%. Besides, the viability, T/C is, setting by setting: under setting [13], 109%; under setting [14], 97.8%; under setting [15], 86.3%; under setting [16], 68.1%; under setting [17], 59.3%; under setting [18], 44.7%. Also, the viability, T/C was 96.7% under setting [19]; 85.9% under setting [20]; 70% under setting [21]; 66.7% under setting [22]; 54.4% under setting [23]; 53.6% under setting [24]. In addition, the viability, T/C by setting is: under setting [25], 90%; under setting [26], 102%; under setting [27], 76.9%; under setting [28], 64.5%; under setting [29], 54.9%; under setting [30], 52.6%. Also, the viability, T/C is, setting by setting: under setting [31], 121%; under setting [32], 94.5%; under setting [33], 77.8%; under setting [34], 61.3%; under setting [35], 66.5%; under setting [36], 49.6%. For the same compound, the viability, T/C is 96.8% under setting [37]; 104% under setting [38]; 73% under setting [39]; 73.2% under setting [40]; 60% under setting [41]; 55.5% under setting [42].

On to `COc1cccc2c1C(=O)c1c(O)c3c(c(O)c1C2=O)CC(O)(C(=O)CO)CC3OC1CC(N)C(O)C(C)O1` (centres undefined), for which the viability, T/C (compound 0.0316 µM) was 61.8% and 66.7% and 64%; the viability, T/C (compound 0.1 µM) is 56.7% and 69.8% and 55.9%; the viability, T/C (compound 0.316 µM) is 51.5% and 57.7% and 47.7%; the viability, T/C (compound 1 µM) is 10.3% and 22.2% and 5.53%; the viability, T/C (compound 3.16 µM) was 0.4% and 0.3% and 0.29%; the viability, T/C (compound 10 µM) was 0.27% and 0.25% and 0.3%. Moreover, the pIC50 (curve of compound) is 6.48 and 6.39 and 6.61.

With `CC1COCCN1c1cc(-c2ccnn2C)c2ccnc(-c3ccn[nH]3)c2n1` (centres undefined), the viability, T/C is 83.5% and 90% and 77.5% (compound 0.0316 µM); 51.3% and 58.9% and 59.6% (compound 0.1 µM); 43.9% and 45.8% and 56.5% (compound 0.316 µM); 36.8% and 37.4% and 36.7% (compound 1 µM); 32.3% and 29.7% and 40.9% (compound 3.16 µM); 27.4% and 31.1% and 28.9% (compound 10 µM). Further, the pIC50 (curve of compound) is 6.82 and 6.68 and 6.41.

`CNCc1ccc(-c2[nH]c3cc(F)cc4c3c2CCNC4=O)cc1` + Nc1ccc(C#CCN(C(=O)Cc2ncc(C(F)(F)F)cc2C(F)(F)F)c2ccc(F)cc2)nn1: the pIC50 runs as follows: under setting [1], under 5.00; under setting [2], under 5.00; under setting [3], under 5.00; under setting [4], under 5.00; under setting [5], under 5.00; under setting [6], under 5.00. Besides, the viability, T/C is, setting by setting: under setting [7], 93.8%; under setting [8], 86.4%; under setting [9], 83.8%; under setting [10], 101%; under setting [11], 110%; under setting [12], 92.1%. In addition, the viability, T/C under setting [13] was 96.9%; the viability, T/C under setting [14] was 79.8%; the viability, T/C under setting [15] is 96.8%; the viability, T/C under setting [16] is 107%; the viability, T/C under setting [17] was 102%; the viability, T/C under setting [18] was 95.2%. For the same compound, the viability, T/C runs as follows: under setting [19], 104%; under setting [20], 81.3%; under setting [21], 88.4%; under setting [22], 96.8%; under setting [23], 104%; under setting [24], 89.8%. The viability, T/C by setting is: under setting [25], 95.5%; under setting [26], 105%; under setting [27], 106%; under setting [28], 113%; under setting [29], 104%; under setting [30], 76.1%. Besides, the viability, T/C was 92.4% under setting [31]; 102% under setting [32]; 91.7% under setting [33]; 103% under setting [34]; 102% under setting [35]; 98.1% under setting [36]. The viability, T/C runs as follows: under setting [37], 116%; under setting [38], 107%; under setting [39], 120%; under setting [40], 101%; under setting [41], 127%; under setting [42], 102%.

In the case of `O=C(Nc1ccc(O)c(NS(=O)(=O)c2ccc(F)cc2)c1)c1ccc(-c2ccccc2)cc1`, the viability, T/C was 87.6% and 93.4% and 107% (compound 0.0316 µM); 107% and 88.9% and 92.8% (compound 0.1 µM); 91.6% and 80.3% and 81.8% (compound 0.316 µM); 89.6% and 92.9% and 90.9% (compound 1 µM); 99.8% and 81.8% and 76.2% (compound 3.16 µM); 75.6% and 74.6% and 59% (compound 10 µM). The negative-log IC50 (pIC50) (curve of compound) is under 5.00.

Take `CNCc1ccc(-c2[nH]c3cc(F)cc4c3c2CCNC4=O)cc1`: the viability, T/C (compound 0.0316 µM) is 92.6% and 94.5% and 97.7%; the viability, T/C (compound 0.1 µM) was 92% and 95.6% and 100%; the viability, T/C (compound 0.316 µM) was 96.7% and 92.8% and 89.4%; the viability, T/C (compound 1 µM) is 96.9% and 93.2% and 104%; the viability, T/C (compound 3.16 µM) is 95.2% and 98.2% and 99.7%; the viability, T/C (compound 10 µM) is 77.3% and 88.2% and 74.5%. Moreover, under “curve of compound”, the pIC50 was under 5.00.

For the compound `Nc1ccc(C#CCN(C(=O)Cc2ncc(C(F)(F)F)cc2C(F)(F)F)c2ccc(F)cc2)nn1`, the viability, T/C (compound 0.0316 µM) is 102% [middle of 13 runs]; the viability, T/C (compound 0.1 µM) was 98% [middle of 13 runs]; the viability, T/C (compound 0.316 µM) is 102% [middle of 13 runs]; the viability, T/C (compound 1 µM) was 99.9% [middle of 13 runs]; the viability, T/C (compound 3.16 µM) is 104% [middle of 13 runs]; the viability, T/C (compound 10 µM) is 112% [middle of 13 runs]. For the same compound, the pIC50 (compound alone, run of 01/19/2024) was under 5.00.
